US20250195521A1 (Revolution Medicines, Inc., priority 2020, published 2025)

What was measured:
[1] = test system: NCI-H358 cells (K-Ras G12C); experiment: CellTiter-Glo cell viability, NCI-H358; format: cell-based, human; conditions: Homo sapiens, NCI-H358, 120 h, K-Ras G12C, 5-day treatment; read-out: H358 Cell Viability IC50
Method: Note—The following protocol describes a procedure for monitoring cell viability of K-Ras mutant cancer cell lines in response to a compound of the invention. Other RAS isoforms may be employed, though the number of cells to be seeded will vary based on cell line used.
Test compounds (132.5 nl) were directly dispensed into the assay plates containing cells. […] On day 5, assay plates and their contents were equilibrated to room temperature for approximately 30 minutes. […] Luminescence was measured using the PerkinElmer Enspire. Data were normalized by the following: (Sample signal/Avg. DMSO)*100. The data were fit using a four-parameter logistic fit.

[2] = test system: Capan-1 cells (K-Ras G12V); experiment: CellTiter-Glo cell viability, Capan-1; format: cell-based, human; conditions: Homo sapiens, CAPAN-1, 120 h, K-Ras G12V, 5-day treatment; read-out: Capan-1 Cell Viability IC50
Method in brief: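 Compounds were dispensed directly onto seeded cells and incubated until day 5, then plates were equilibrated at room temperature for about 30 min before CellTiter-Glo luminescence readout. Signals were normalized as (sample/average DMSO)×100 and fitted with a four-parameter logistic model.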

[3] = target: KRAS G12C (Homo sapiens (Human), UniProt P01116+P62937, G12C); experiment: Ras-Raf disruption/FRET/MOA assay (BRAF RBD, Cyclophilin A); format: biochemical; conditions: read-out: KRAS G12C FRET IC50
Chain of KRAS G12C (P01116-2 other isoform, or with tags, fused parts or gaps G12C): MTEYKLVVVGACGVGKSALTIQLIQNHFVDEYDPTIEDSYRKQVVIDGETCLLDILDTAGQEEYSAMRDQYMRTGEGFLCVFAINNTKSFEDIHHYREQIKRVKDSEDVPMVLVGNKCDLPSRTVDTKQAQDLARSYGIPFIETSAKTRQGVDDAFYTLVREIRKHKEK
Chain of KRAS G12C (P62937 whole entry): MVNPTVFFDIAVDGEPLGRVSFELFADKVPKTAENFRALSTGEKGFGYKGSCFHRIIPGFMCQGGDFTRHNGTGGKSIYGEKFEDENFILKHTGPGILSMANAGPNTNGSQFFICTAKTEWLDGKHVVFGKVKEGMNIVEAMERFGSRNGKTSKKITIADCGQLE
Method in brief: (§1)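 TR-FRET read after 1.5 h with 10 nM anti-His Eu-W1024 and 50 nM anti-GST APC, following 3 h at 25 °C of GMPPNP-loaded His6-Ras (12.5 nM), GST-BRAF RBD (50 nM) and Cyclophilin A (25 μM) with compound from 30 μM final, 10 points, 3-fold. IC50 reported; pH 7.3 HEPES, 100 mM NaCl.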

[4] = target: KRAS G12D (Homo sapiens (Human), UniProt P01116+P62937, G12D); experiment: as above; format: biochemical; conditions: read-out: KRAS G12D FRET IC50
Chain of KRAS G12D (P01116 other isoform, or with tags, fused parts or gaps G12D): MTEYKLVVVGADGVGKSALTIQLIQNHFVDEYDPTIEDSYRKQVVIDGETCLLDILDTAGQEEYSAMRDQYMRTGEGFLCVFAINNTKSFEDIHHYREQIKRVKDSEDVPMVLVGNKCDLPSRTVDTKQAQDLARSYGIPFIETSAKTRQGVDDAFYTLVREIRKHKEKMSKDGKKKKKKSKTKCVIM
Chain of KRAS G12D (P62937 whole entry): as the sequence (P62937 whole entry) above
Method in brief: as §1

[5] = target: KRAS G12S (Homo sapiens (Human), UniProt P01116+P62937, G12S); experiment: as above; format: biochemical; conditions: read-out: KRAS G12S FRET IC50
Chain of KRAS G12S (P01116 other isoform, or with tags, fused parts or gaps G12S): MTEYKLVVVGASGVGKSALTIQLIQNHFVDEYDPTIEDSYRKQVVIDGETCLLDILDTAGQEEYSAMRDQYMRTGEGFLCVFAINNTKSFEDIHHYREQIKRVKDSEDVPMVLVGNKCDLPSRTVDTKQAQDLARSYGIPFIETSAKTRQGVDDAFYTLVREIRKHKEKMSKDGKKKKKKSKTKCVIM
Chain of KRAS G12S (P62937 whole entry): as the sequence (P62937 whole entry) above
Method in brief: as §1

[6] = target: KRAS G12V (Homo sapiens (Human), UniProt P01116+P62937, G12V); experiment: as above; format: biochemical; conditions: read-out: KRAS G12V FRET IC50
Chain of KRAS G12V (P01116 other isoform, or with tags, fused parts or gaps G12V): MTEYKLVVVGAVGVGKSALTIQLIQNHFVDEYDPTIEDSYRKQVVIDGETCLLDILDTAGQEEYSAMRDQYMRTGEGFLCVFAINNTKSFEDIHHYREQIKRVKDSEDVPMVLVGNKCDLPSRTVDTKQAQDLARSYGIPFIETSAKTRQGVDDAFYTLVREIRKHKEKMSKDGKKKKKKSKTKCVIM
Chain of KRAS G12V (P62937 whole entry): as the sequence (P62937 whole entry) above
Method in brief: as §1

[7] = target: KRAS G13C (Homo sapiens (Human), UniProt P01116+P62937, G13C); experiment: as above; format: biochemical; conditions: read-out: KRAS G13C FRET IC50
Chain of KRAS G13C (P01116 other isoform, or with tags, fused parts or gaps G13C): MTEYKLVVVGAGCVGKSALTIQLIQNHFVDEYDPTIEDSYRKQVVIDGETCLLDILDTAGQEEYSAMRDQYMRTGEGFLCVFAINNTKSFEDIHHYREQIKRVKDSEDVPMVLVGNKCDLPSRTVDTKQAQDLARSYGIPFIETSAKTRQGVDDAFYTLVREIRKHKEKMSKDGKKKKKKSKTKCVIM
Chain of KRAS G13C (P62937 whole entry): as the sequence (P62937 whole entry) above
Method in brief: as §1

[8] = target: KRAS G13D (Homo sapiens (Human), UniProt P01116+P62937, G13D); experiment: as above; format: biochemical; conditions: read-out: KRAS G13D FRET data IC50
Chain of KRAS G13D (P01116 other isoform, or with tags, fused parts or gaps G13D): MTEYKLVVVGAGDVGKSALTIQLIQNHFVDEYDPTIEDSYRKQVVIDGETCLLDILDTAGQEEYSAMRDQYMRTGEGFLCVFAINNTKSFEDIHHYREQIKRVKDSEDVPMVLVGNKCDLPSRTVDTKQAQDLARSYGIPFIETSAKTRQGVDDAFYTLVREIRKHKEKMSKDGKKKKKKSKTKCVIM
Chain of KRAS G13D (P62937 whole entry): as the sequence (P62937 whole entry) above
Method in brief: as §1

[9] = target: KRAS WT (Homo sapiens (Human), UniProt P01116+P62937); experiment: as above; format: biochemical; conditions: read-out: KRAS WT FRET data IC50
Chain of KRAS WT (P01116 other isoform, or with tags, fused parts or gaps): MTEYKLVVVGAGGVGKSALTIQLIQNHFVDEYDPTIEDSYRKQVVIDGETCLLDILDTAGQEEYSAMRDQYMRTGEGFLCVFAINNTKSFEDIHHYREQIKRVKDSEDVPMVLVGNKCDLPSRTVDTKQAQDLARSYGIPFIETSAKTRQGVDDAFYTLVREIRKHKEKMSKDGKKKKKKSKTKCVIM
Chain of KRAS WT (P62937 whole entry): as the sequence (P62937 whole entry) above
Method in brief: as §1

[10] = target: NRAS G12C (Homo sapiens (Human), UniProt P01111+P62937, G12C); experiment: as above; format: biochemical; conditions: read-out: NRAS G12C FRET data IC50
Chain of NRAS G12C (P01111 whole entry G12C): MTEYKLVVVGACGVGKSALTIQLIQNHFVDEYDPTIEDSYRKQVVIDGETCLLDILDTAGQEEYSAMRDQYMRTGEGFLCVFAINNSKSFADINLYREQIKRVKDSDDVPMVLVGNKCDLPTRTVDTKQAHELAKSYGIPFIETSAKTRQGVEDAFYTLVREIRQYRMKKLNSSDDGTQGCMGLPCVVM
Chain of NRAS G12C (P62937 whole entry): as the sequence (P62937 whole entry) above
Method in brief: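 25 μM tagless Cyclophilin A, 12.5 nM His6-Ras-GMPPNP and 50 nM GST-BRAF RBD in HEPES pH 7.3 buffer with 5 mM MgCl2, with compound (10-point 3-fold series from 30 μM final) for 3 h at 25 °C. Anti-His Eu and anti-GST APC then added for 1.5 h. IC50 from TR-FRET ratio decrease versus DMSO.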

[11] = test system: K-Ras G12C (NCI-H358 cells); experiment: Potency assay: pERK in NCI-H358 cells; format: cell-based, human; conditions: Homo sapiens; NCI-H358 cells, 4 hours; read-out: pERK EC50 (H358 KRAS G12C)
Method in brief: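 Cells plated the day before were exposed for 4 h at 37° C, 5% CO2 to a 10-point, 3-fold DMSO dilution series (10 mM top stock), in duplicate. Phospho-ERK was read by AlphaLISA SureFire Ultra or by In-Cell Western with DRAQ5 DNA stain, and IC50 came from a 4-parameter sigmoidal fit.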

## CCn1c(-c2cnccc2COC)c2c3cc(ccc31)-c1cc(O)cc(c1)C[C@H](NC(=O)C(C)C1CCOCC1)C(=O)N1CCC[C@H](N1)C(=O)OCC(C)(C)C2 (stereo partly drawn) [Compound A258]
[1]
  IC50: 1000 to 10000 nM
[2]
  IC50: > 10000 nM
[3]
  IC50: 1000 to 10000 nM
[4]
  IC50: > 10000 nM
[5]
  IC50: 1000 to 10000 nM
[6]
  IC50: 1000 to 10000 nM
[7]
  IC50: 100 to 1000 nM
[8]
  IC50: 1000 to 10000 nM
[9]
  IC50: 1000 to 10000 nM
[10]
  IC50: 1000 to 10000 nM

## CCn1c(-c2cccnc2[C@H](C)OC)c2c3cc(ccc31)-c1cccc(c1)C[C@H](NC(=O)[C@H](C(C)C)N(C)C(=O)N1CC(OC)C1)C(=O)N1CCC[C@H](N1)C(=O)OCC(C)(C)C2 [Compound A355]
[1]
  IC50: 100 to 1000 nM
[2]
  IC50: 100 to 1000 nM
[3]
  IC50: 100 to 1000 nM
[4]
  IC50: 1000 to 10000 nM
[5]
  IC50: 1000 to 10000 nM
[6]
  IC50: 100 to 1000 nM
[7]
  IC50: 100 to 1000 nM
[8]
  IC50: 1000 to 10000 nM
[9]
  IC50: 100 to 1000 nM
[10]
  IC50: 100 to 1000 nM

## CCn1c(-c2cccnc2[C@H](C)OC)c2c3cc(ccc31)-c1cc(O)cc(c1)C[C@H](NC(=O)[C@H](C(C)C)N(C)C(=O)[C@H]1CCN(C(=O)CCc3ccccc3)C1)C(=O)N1CCC[C@H](N1)C(=O)OCC(C)(C)C2 [Compound A201]
[1]
  IC50: 100 to 1000 nM
[2]
  IC50: 100 to 1000 nM
[3]
  IC50: 10 to 100 nM
[4]
  IC50: 100 to 1000 nM
[5]
  IC50: 100 to 1000 nM
[6]
  IC50: 10 to 100 nM
[7]
  IC50: 10 to 100 nM
[8]
  IC50: 100 to 1000 nM
[9]
  IC50: 100 to 1000 nM
[10]
  IC50: 10 to 100 nM

## CCn1c(-c2cccnc2[C@H](C)OC)c2c3cc(ccc31)-c1csc(n1)C[C@H](NC(=O)[C@H](C(C)C)N(C)C(=O)N1CCCCC1)C(=O)N1CCC[C@H](N1)C(=O)OCC(C)(C)C2 [Compound A363]
[1]
  IC50: 10 to 100 nM
[2]
  IC50: 10 to 100 nM
[3]
  IC50: 10 to 100 nM
[4]
  IC50: 100 to 1000 nM
[5]
  IC50: 10 to 100 nM
[6]
  IC50: 100 to 1000 nM
[7]
  IC50: 100 to 1000 nM
[8]
  IC50: 100 to 1000 nM
[9]
  IC50: 10 to 100 nM
[10]
  IC50: 10 to 100 nM

## CCn1c(-c2cccnc2[C@H](C)OC)c2c3cc(ccc31)-c1cc(O)cc(c1)C[C@H](NC(=O)[C@H](C(C)C)N(C)C(=O)C1CCC1)C(=O)N1CCC[C@H](N1)C(=O)OCC(C)(C)C2 [Compound A218]
[1]
  IC50: 10 to 100 nM
[2]
  IC50: 10 to 100 nM
[3]
  IC50: 10 to 100 nM
[4]
  IC50: 100 to 1000 nM
[5]
  IC50: 10 to 100 nM
[6]
  IC50: 10 to 100 nM
[7]
  IC50: 10 to 100 nM
[8]
  IC50: 100 to 1000 nM
[9]
  IC50: 10 to 100 nM
[10]
  IC50: 10 to 100 nM

## CCn1c(-c2cccnc2[C@H](C)OC)c2c3cc(ccc31)-c1cc(O)cc(c1)C[C@H](NC(=O)[C@H](C(C)C)N(C)C(=O)C1CC(C)C1)C(=O)N1CCC[C@H](N1)C(=O)OCC(C)(C)C2 (stereo partly drawn) [Compound A384]
[1]
  IC50: 100 to 1000 nM
[2]
  IC50: 100 to 1000 nM
[3]
  IC50: 10 to 100 nM
[4]
  IC50: 100 to 1000 nM
[5]
  IC50: 100 to 1000 nM
[6]
  IC50: 100 to 1000 nM
[7]
  IC50: 10 to 100 nM
[8]
  IC50: 100 to 1000 nM
[9]
  IC50: 100 to 1000 nM
[10]
  IC50: 10 to 100 nM

## CCn1c(-c2cccnc2[C@H](C)OC)c2c3cc(ccc31)-c1cc(O)cc(c1)C[C@H](NC(=O)[C@H](C(C)C)N(C)C(=O)[C@H]1CC[C@@H]1N)C(=O)N1CCC[C@H](N1)C(=O)OCC(C)(C)C2 [Compound A392]
[1]
  IC50: 10 to 100 nM
[2]
  IC50: 1000 to 10000 nM
[3]
  IC50: 10 to 100 nM
[4]
  IC50: 10 to 100 nM
[5]
  IC50: 10 to 100 nM
[6]
  IC50: 100 to 1000 nM
[7]
  IC50: 10 to 100 nM
[8]
  IC50: 10 to 100 nM
[9]
  IC50: 10 to 100 nM
[10]
  IC50: 10 to 100 nM

## CCn1c(-c2cnccc2COC)c2c3cc(ccc31)-c1cc(O)cc(c1)C[C@H](NC(=O)[C@H](C(C)C)N(C)C(=O)[C@H]1CCN(C3COC3)C1)C(=O)N1CCC[C@H](N1)C(=O)OCC(C)(C)C2 [Compound A51]
[1]
  IC50: 1000 to 10000 nM
[3]
  IC50: 100 to 1000 nM
[4]
  IC50: 1000 to 10000 nM
[5]
  IC50: 100 to 1000 nM
[6]
  IC50: 1000 to 10000 nM
[7]
  IC50: 100 to 1000 nM
[8]
  IC50: 100 to 1000 nM
[9]
  IC50: 100 to 1000 nM
[10]
  IC50: 1000 to 10000 nM
[11]
  EC50: < 5 µM

## CCn1c(-c2cnccc2COC)c2c3cc(ccc31)-c1cc(O)cc(c1)C[C@H](NC(=O)[C@@H](NC(=O)c1ncco1)C(C)C)C(=O)N1CCC[C@H](N1)C(=O)OCC(C)(C)C2 [Compound A56]
[1]
  IC50: > 10000 nM
[3]
  IC50: 1000 to 10000 nM
[4]
  IC50: > 10000 nM
[5]
  IC50: 1000 to 10000 nM
[6]
  IC50: 1000 to 10000 nM
[7]
  IC50: 1000 to 10000 nM
[8]
  IC50: 1000 to 10000 nM
[9]
  IC50: 1000 to 10000 nM
[10]
  IC50: 1000 to 10000 nM
[11]
  EC50: < 5 µM

## CCn1c(-c2cnccc2COC)c2c3cc(ccc31)-c1cc(O)cc(c1)C[C@H](NC(=O)[C@H](C(C)C)N(C)C(=O)N1CCN(C)CC1)C(=O)N1CCC[C@H](N1)C(=O)OCC(C)(C)C2 [Compound A46]
[1]
  IC50: 1000 to 10000 nM
[3]
  IC50: 100 to 1000 nM
[4]
  IC50: 1000 to 10000 nM
[5]
  IC50: 100 to 1000 nM
[6]
  IC50: 1000 to 10000 nM
[7]
  IC50: 100 to 1000 nM
[8]
  IC50: 100 to 1000 nM
[9]
  IC50: 100 to 1000 nM
[10]
  IC50: 100 to 1000 nM

## CCn1c(-c2cccnc2[C@H](C)OC)c2c3cc(ccc31)-c1cc(O)cc(c1)C[C@H](NC(=O)[C@H](C(C)C)N(C)C(=O)[C@H]1CCN(C(=O)C(C)(C)NC)C1)C(=O)N1CCC[C@H](N1)C(=O)OCC(C)(C)C2 [Compound A381]
[1]
  IC50: 100 to 1000 nM
[2]
  IC50: 1000 to 10000 nM
[3]
  IC50: 10 to 100 nM
[4]
  IC50: 10 to 100 nM
[5]
  IC50: 10 to 100 nM
[6]
  IC50: 100 to 1000 nM
[8]
  IC50: 10 to 100 nM
[9]
  IC50: 10 to 100 nM
[10]
  IC50: 10 to 100 nM

## CCn1c(-c2cnccc2COC)c2c3cc(ccc31)-c1cc(O)cc(c1)C[C@H](NC(=O)[C@H](C(C)C)N(C)c1cnc(N)[nH]c1=O)C(=O)N1CCC[C@H](N1)C(=O)OCC(C)(C)C2 [Compound A63]
[1]
  IC50: > 10000 nM
[3]
  IC50: 1000 to 10000 nM
[4]
  IC50: > 10000 nM
[5]
  IC50: 1000 to 10000 nM
[6]
  IC50: 1000 to 10000 nM
[7]
  IC50: 1000 to 10000 nM
[8]
  IC50: 1000 to 10000 nM
[9]
  IC50: 1000 to 10000 nM
[10]
  IC50: 1000 to 10000 nM
